From ChEMBL document CHEMBL4177695, “Identification of pyruvate dehydrogenase kinase 1 inhibitors with anti-osteosarcoma activity” (Bioorg Med Chem Lett, 2017)
Active and inactive are the calls of the source. The rule behind the calls is not given here.

Columns and labels:
[1] = target: T1, [Pyruvate dehydrogenase (acetyl-transferring)] kinase isozyme 1, mitochondrial (Homo sapiens, UniProt Q15118); conditions: 10 mM
Description: Inhibition of PDK1 in human MG63 cells assessed as reduction in pyruvate dehydrogenase complex phosphorylation at ser232 residue at 10 mM after 24 hrs by Western blot analysis

[2] = target: T1, [Pyruvate dehydrogenase (acetyl-transferring)] kinase isozyme 1, mitochondrial; conditions: 10 mM; remark: listed apart in the source
Description: Inhibition of PDK1 in human MG63 cells assessed as reduction in pyruvate dehydrogenase complex phosphorylation at ser293 residue at 10 mM after 12 hrs by high content analysis

[3] = target: T1, [Pyruvate dehydrogenase (acetyl-transferring)] kinase isozyme 1, mitochondrial; conditions: 10 mM; remark: listed apart in the source
Description: Inhibition of PDK1 in human MG63 cells assessed as reduction in pyruvate dehydrogenase complex phosphorylation at ser293 residue at 10 mM after 24 hrs by Western blot analysis

[4] = target: [Pyruvate dehydrogenase (acetyl-transferring)] kinase isozyme 2, mitochondrial (Homo sapiens, UniProt Q15119); test: Inhibition of recombinant human GST-tagged PDK2 expressed in baculovirus infected Sf9 cells using PDHA1 as substrate measured after 1 hr by ELISA
[5] = system: MG-63; test: Anti-proliferative activity against human MG63 cells after 72 hrs by MTT assay; assay type: functional, cell-based; conditions: for EC50: MG-63, 72 h
[6] = target: T1, [Pyruvate dehydrogenase (acetyl-transferring)] kinase isozyme 1, mitochondrial; conditions: 10 mM; remark: listed apart in the source
Description: Inhibition of PDK1 in human MG63 cells assessed as reduction in pyruvate dehydrogenase complex phosphorylation at ser232 residue at 10 mM after 12 hrs by high content analysis

[7] = target: T1, [Pyruvate dehydrogenase (acetyl-transferring)] kinase isozyme 1, mitochondrial; test: Inhibition of PDK1 in human MG63 cells assessed as reduction in pyruvate dehydrogenase complex phosphorylation at ser232 residue after 12 hrs by high content analysis; assay type: cell-based
[8] = system: MG-63; test: Potency index, ratio of DCA EC50 to test compound EC50 for human MG63 cells; assay type: functional
[9] = target: T1, [Pyruvate dehydrogenase (acetyl-transferring)] kinase isozyme 1, mitochondrial; test: Inhibition of PDK1 in human MG63 cells assessed as reduction in pyruvate dehydrogenase complex phosphorylation at ser293 residue at 12 uM after 12 hrs by high content analysis relative to control; assay type: cell-based
[10] = target: T1, [Pyruvate dehydrogenase (acetyl-transferring)] kinase isozyme 1, mitochondrial; test: Inhibition of PDK1 in human MG63 cells assessed as reduction in pyruvate dehydrogenase complex phosphorylation at ser293 residue at 3 uM after 12 hrs by high content analysis relative to control; assay type: cell-based
[11] = target: T1, [Pyruvate dehydrogenase (acetyl-transferring)] kinase isozyme 1, mitochondrial; test: Inhibition of PDK1 in human MG63 cells assessed as reduction in pyruvate dehydrogenase complex phosphorylation at ser293 residue after 24 hrs by Western blot analysis; assay type: cell-based
[12] = target: T1, [Pyruvate dehydrogenase (acetyl-transferring)] kinase isozyme 1, mitochondrial; test: Inhibition of PDK1 in human MG63 cells assessed as reduction in pyruvate dehydrogenase complex phosphorylation at ser232 residue after 24 hrs by Western blot analysis; assay type: cell-based
[13] = target: T1, [Pyruvate dehydrogenase (acetyl-transferring)] kinase isozyme 1, mitochondrial; test: Inhibition of recombinant human GST-tagged PDK1 expressed in baculovirus infected Sf9 cells using PDHA1 as substrate measured after 1 hr by ELISA
[14] = target: T1, [Pyruvate dehydrogenase (acetyl-transferring)] kinase isozyme 1, mitochondrial; test: Potency index, ratio of DCA IC50 to test compound IC50 for recombinant human GST-tagged PDK1 expressed in baculovirus infected Sf9 cells
[15] = target: T1, [Pyruvate dehydrogenase (acetyl-transferring)] kinase isozyme 1, mitochondrial; test: Inhibition of PDK1 in human MG63 cells assessed as reduction in pyruvate dehydrogenase complex phosphorylation at ser293 residue at 6 uM after 12 hrs by high content analysis relative to control; assay type: cell-based
[16] = target: T1, [Pyruvate dehydrogenase (acetyl-transferring)] kinase isozyme 1, mitochondrial; test: Inhibition of PDK1 in human MG63 cells assessed as reduction in pyruvate dehydrogenase complex phosphorylation at ser293 residue after 12 hrs by high content analysis; assay type: cell-based
[17] = target: T1, [Pyruvate dehydrogenase (acetyl-transferring)] kinase isozyme 1, mitochondrial; test: Inhibition of recombinant human GST-tagged PDK1 expressed in baculovirus infected Sf9 cells at 10 uM using PDHA1 as substrate measured after 1 hr by ELISA relative to control

T1 sequence (Q15118 whole entry): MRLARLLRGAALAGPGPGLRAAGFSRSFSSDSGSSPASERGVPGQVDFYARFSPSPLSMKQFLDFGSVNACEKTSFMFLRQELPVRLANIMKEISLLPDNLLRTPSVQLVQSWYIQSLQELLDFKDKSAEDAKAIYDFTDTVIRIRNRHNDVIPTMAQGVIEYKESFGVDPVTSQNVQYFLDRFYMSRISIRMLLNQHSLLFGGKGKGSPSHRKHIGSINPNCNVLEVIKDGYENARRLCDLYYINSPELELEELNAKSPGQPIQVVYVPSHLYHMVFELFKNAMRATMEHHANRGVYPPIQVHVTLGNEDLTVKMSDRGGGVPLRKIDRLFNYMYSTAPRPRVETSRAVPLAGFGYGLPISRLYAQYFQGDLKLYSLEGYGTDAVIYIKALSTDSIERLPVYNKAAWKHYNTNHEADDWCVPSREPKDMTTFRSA

| SMILES | inhibition [1] | inhibition [2] | inhibition [3] | IC50 [4] | EC50 [5] | inhibition [6] | inhibition [7] | Ratio EC50 [8] | inhibition [9] | inhibition [10] | inhibition [11] | inhibition [12] | IC50 [13] | Ratio IC50 [14] | inhibition [15] | inhibition [16] | inhibition [17] | Activity [5] |
| --- | --- | --- | --- | --- | --- | --- | --- | --- | --- | --- | --- | --- | --- | --- | --- | --- | --- | --- |
| O=C(O)C(Cl)Cl [DICHLOROACETIC ACID] | Active | Active | Active | 9000 µM | 15400 µM | Active | – | – | – | – | – | – | – | – | – | – | – | – |
| O=c1c(-c2ccc(Br)cc2)coc2cc(OCCN3CCN(CCO)CC3)ccc12 | – | – | – | 10.9 µM | 11 µM | – | Dose-dependent effect | >1000 | 75.3% | 17.6% | Dose-dependent effect | Dose-dependent effect | 3.14 µM | > 1000 | 49.3% | Dose-dependent effect | 83.3% | Dose-dependent effect |
| COc1ccc(-c2c(C)c3ccc(OCCN4CCN(CCO)CC4)cc3oc2=O)cc1OC | – | – | – | 5.2 µM | 14.5 µM | – | Dose-dependent effect | >1000 | 78.3% | 18.7% | Dose-dependent effect | Dose-dependent effect | 2.97 µM | > 1000 | 39.7% | Dose-dependent effect | 80.5% | Dose-dependent effect |
